These results are taken from ChEMBL document CHEMBL6153134, “Anti-inflammatory and Hepatoprotective Iridoid Glycosides from the Roots of Gomphandra mollis” (J Nat Prod, 2025).

What all share (type): functional
Assay [1] has as its system HepG2. Description: Hepatoprotective activity against APAP-induced cytotoxicity in human HepG2 cells assessed as cell viability at 40 to 80 uM pretreated for 8 hrs followed by APAP addition for 36 hrs by MTT assay (reference value: 68.1%). To be noted: dose 40-80 µM, time 44 hrs.
Assay [2] has as its system HepG2. Description: Hepatoprotective activity against APAP-induced cytotoxicity in human HepG2 cells assessed as cell viability at 40 uM pretreated for 8 hrs followed by APAP addition for 36 hrs by MTT assay (reference value: 68.1%). The note with it: time 44 hrs, read-out: Activity.
For assay [3], the system named is HepG2. Description: Hepatoprotective activity against APAP-induced cytotoxicity in human HepG2 cells assessed as cell viability at 50 ug/mL pretreated for 8 hrs followed by APAP addition for 36 hrs by MTT assay (reference value: 68.1%). To be noted: time 44 hrs, read-out: Activity. In general terms: Tetrazolium assays rely on reduction of a dye to a coloured formazan, in cell work by metabolically active cells.

Consider `C=C[C@H]1[C@H](O[C@@H]2O[C@H](CO)[C@@H](O)[C@H](O)[C@H]2O)OC=C2C(=O)OCC[C@H]21` [SWEROSIDE], for which the Activity in the assay with HepG2 [1] was found to be 75.6%.

Take `C=C[C@H]1[C@H](O[C@@H]2O[C@H](CO)[C@@H](O)[C@H](O)[C@H]2O)OC=C(C(=O)O[C@H]2C[C@@H]3CCOC(=O)[C@@H]3[C@H]2C)[C@H]1C[C@@H](O)O[C@@H](O)C[C@@H]1C(C(=O)O[C@H]2C[C@@H]3CCOC(=O)[C@@H]3[C@H]2C)=CO[C@@H](O[C@@H]2O[C@H](CO)[C@@H](O)[C@H](O)[C@H]2O)[C@@H]1C=C`: in the assay on HepG2 [2], the viability at 40 µM was 75.6%.

As to `C=C[C@H]1[C@H](O[C@@H]2O[C@H](CO)[C@@H](O)[C@H](O)[C@H]2O)OC=C(C(=O)O[C@H]2C[C@@H]3C(C(=O)OC)=CO[C@@H](O[C@@H]4O[C@H](CO)[C@@H](O)[C@H](O)[C@H]4O)[C@@H]3[C@H]2C)[C@H]1C[C@@H]1O[C@@H]2[C@@H](O)[C@@H](OC[C@H]3O[C@@](CO)(O[C@H]4O[C@H](CO)[C@@H](O)[C@H](O)[C@H]4O)[C@@H](O)[C@@H]3O)O[C@H](CO)[C@@H]2O1`, the Activity in the assay on HepG2 [1] came out at 75.6%.

In the case of `COc1cc([C@H]2Oc3cc([C@H]4Oc5cc(O)cc(O)c5C(=O)[C@@H]4O)ccc3O[C@@H]2CO)ccc1O` [SILYBIN A], in the assay on HepG2 [3], the viability at 50 µg/mL was found to be 90.9%.

With `C=CC1C(CC(OC)OC)C(C(=O)O[C@H]2CC3C(C(=O)OC)=CO[C@@H](O[C@@H]4O[C@H](CO)[C@@H](O)[C@H](O)[C@H]4O)C3[C@H]2C)=CO[C@H]1O[C@@H]1O[C@H](CO)[C@@H](O)[C@H](O)[C@H]1O` (stereo partly specified), in the assay on HepG2 [2], the viability at 40 µM is 75.6%.

Consider `C=C[C@H]1[C@H](O[C@@H]2O[C@H](CO)[C@@H](O)[C@H](O)[C@H]2O)OC=C(C(=O)O[C@H]2C[C@@H]3C(C(=O)OC)=CO[C@@H](O[C@@H]4O[C@H](CO)[C@@H](O)[C@H](O)[C@H]4O)[C@@H]3[C@H]2C)[C@H]1CC=O`, for which the Activity in the assay on HepG2 [1] came out at 75.6%.
